Reference: patent publication US8669292B2, “Therapeutic formulation” (Orion Therapeutics, LLC, priority 2005, dated 2014)
Values after ≈ are worked out from the molar mass of the structure shown. Where two headings read alike, the source gives them in different places.

Assays:
[1] = system: HCT-116 human colon cancer cells; test: IC50 assay (concentration-cell number study); type: cell-based; conditions: HCT-116, 120 h exposure
Protocol: Concentration-cell number studies (IC50 assay) were carried out utilizing 12 separate compositions (numbered 1-12 below) against 13 different cancer cell lines (see Table 6). […] On day 3, cells are exposed to different concentrations of the drug. Flasks are incubated for 120 h (5 d) in a 5% CO2 incubator at 37° C. and the cells harvested with trypsin, washed once with Hanks Balanced Salt Solution (HBSS) and re-suspended in HBSS containing 0.08% Trypan Blue. Both viable and dead cells are counted using a hemocytometer. Viable cell numbers are normalized to an untreated control and plotted as a function of drug concentration. The IC50 value is determined using Prism 4.0.

[2] = ORAC total (Brunswick Test # A103); type: biochemical; conditions: Cantron oral liquid scores converted from TE/L to TE/g
Protocol: (§1) Peroxyl radical scores are measured in the ORAC test (Oxygen Radical Absorption Capacity). Hydroxyl Radicals are tested in the HORAC test (Hydroxyl Radical Absorption Capacity). Peroxynitrite Radicals are tested in the NORAC test (Peroxynitrite Radical Absorption Capacity). Superoxide Radicals are measured in the SOD test (Superoxide Radical Absorption Capacity). The ORAC test measures the antioxidant activity against peroxyl radicals by determining how many peroxyl free radicals can be absorbed by a given antioxidant as compared to the vitamin E analog-Trolox. The result is expressed as micromoles of Trolox equivalent per liter (TE/L) for liquid formulations and Trolox equivalent per gram (TE/g) for dry powders. Brunswick tested the Applicant's compounds for antioxidant activity against both hydrophilic and lipophilic peroxyl radicals as expressed in the ORAC total (see table 7).

[3] = ORAC hydro (Brunswick Test # A101); type: biochemical; conditions: Cantron oral liquid scores converted from TE/L to TE/g
Protocol: as §1

[4] = ORAC lipo (Brunswick Test # A102); type: biochemical; conditions: Cantron oral liquid scores converted from TE/L to TE/g
Protocol: as §1

[5] = HORAC (Brunswick Test # A104); type: biochemical; conditions: Cantron oral liquid scores converted from CAE/L to CAE/g
Protocol: Peroxyl radical scores are measured in the ORAC test (Oxygen Radical Absorption Capacity). Hydroxyl Radicals are tested in the HORAC test (Hydroxyl Radical Absorption Capacity). Peroxynitrite Radicals are tested in the NORAC test (Peroxynitrite Radical Absorption Capacity). Superoxide Radicals are measured in the SOD test (Superoxide Radical Absorption Capacity). […] The result is expressed as micromoles of caffeic acid equivalent per liter (CAE/L) for liquid formulations and caffeic acid equivalent per gram (CAE/g) for dry powders.

[6] = NORAC (Brunswick Test # A105); type: biochemical; conditions: Cantron oral liquid scores converted from TE/L to TE/g
Protocol: Peroxyl radical scores are measured in the ORAC test (Oxygen Radical Absorption Capacity). Hydroxyl Radicals are tested in the HORAC test (Hydroxyl Radical Absorption Capacity). Peroxynitrite Radicals are tested in the NORAC test (Peroxynitrite Radical Absorption Capacity). Superoxide Radicals are measured in the SOD test (Superoxide Radical Absorption Capacity). Applicant's compounds and compositions were tested by the NORAC test (Brunswick test # A 105), which measures the activity of a given antioxidant against peroxynitrite radicals. NORAC tests were based on the method of Chung H. et al (2001) Journal Agricultural of Food Chemistry, 49: 3614-3621. Scores are expressed in micromoles of trolox equivalent per liter (TE/L) for liquid formulations and Trolox equivalent per gram (TE/g) for dry powders.

[7] = SORAC (Brunswick Test # A106); type: biochemical; conditions: Cantron oral liquid scores converted from unitsSODeq/L to unitsSODeq/g
Protocol: Peroxyl radical scores are measured in the ORAC test (Oxygen Radical Absorption Capacity). Hydroxyl Radicals are tested in the HORAC test (Hydroxyl Radical Absorption Capacity). Peroxynitrite Radicals are tested in the NORAC test (Peroxynitrite Radical Absorption Capacity). Superoxide Radicals are measured in the SOD test (Superoxide Radical Absorption Capacity). Applicant's compounds and compositions were tested by the SORAC test (Brunswick test #106), which measures the activity of a given antioxidant against Superoxide radicals. The tests were conducted based on the method of Zhao et al (1999) Journal of Agricultural and Food Chemistry, (1999), 47: 2537-2543. The calibration standard was SOD and was expressed as a unit SOD equivalent per liter (unitsSODeq/L) for liquid formulations and unit SOD equivalent per gram (unitsSODeq/g) for dry powders.

[8] = system: H125 Lung Cancer; test: IC50 assay (concentration-cell number study); type: cell-based; conditions: 120 h exposure
Protocol: (§2) These cells are grown in 5 ml culture medium (RPMI-1640+15% Bovine Calf serum containing 1% penicillin-streptomycin, and 1% Glutamine) at 37° C. and 5% CO2 at a starting concentration of 5×10^4 cells/T25 flask. On day 3, cells are exposed to different concentrations of the drug. Flasks are incubated for 120 h (5 d) in a 5% CO2 incubator at 37° C. and the cells harvested with trypsin, washed once with Hanks Balanced Salt Solution (HBSS) and re-suspended in HBSS containing 0.08% Trypan Blue. Both viable and dead cells are counted using a hemocytometer. Viable cell numbers are normalized to an untreated control and plotted as a function of drug concentration. The IC50 value is determined using Prism 4.0.
(§3) Cell Lines utilized in IC50 Assays: HCT-116 human colon cancer cells, H125 Lung Cancer, MCF-7, Breast Cancer, MDA-235 Breast Cancer, LNCaP Prostate Cancer, OVAR-5 Ovarian Cancer, U251N Brain Cancer Sarcoma 180, Panc 01Pancreatic Cancer, CCRF-CEM Leukemia, HEP-G2 Liver Cancer, L1210 Leukemia, Colon 38 Colon Cancer.

[9] = system: MCF-7 Breast Cancer; test: IC50 assay (concentration-cell number study); type: cell-based; conditions: 120 h exposure
Protocol: (§4) Concentration-cell number studies (IC50 assay) were carried out utilizing 12 separate compositions (numbered 1-12 below) against 13 different cancer cell lines (see Table 6). These cells are grown in 5 ml culture medium (RPMI-1640+15% Bovine Calf serum containing 1% penicillin-streptomycin, and 1% Glutamine) at 37° C. and 5% CO2 at a starting concentration of 5×10^4 cells/T25 flask. On day 3, cells are exposed to different concentrations of the drug. Flasks are incubated for 120 h (5 d) in a 5% CO2 incubator at 37° C. and the cells harvested with trypsin, washed once with Hanks Balanced Salt Solution (HBSS) and re-suspended in HBSS containing 0.08% Trypan Blue. Both viable and dead cells are counted using a hemocytometer. Viable cell numbers are normalized to an untreated control and plotted as a function of drug concentration. The IC50 value is determined using Prism 4.0.

[10] = system: MDA-235 Breast Cancer; test: IC50 assay (concentration-cell number study); type: cell-based; conditions: 120 h exposure
Protocol: as §4

[11] = system: LNCaP Prostate Cancer; test: IC50 assay (concentration-cell number study); type: cell-based; conditions: 120 h exposure
Protocol: as §4

[12] = system: OVAR-5 Ovarian Cancer; test: IC50 assay (concentration-cell number study); type: cell-based; conditions: 120 h exposure
Protocol: as §4

[13] = system: U251N Brain Cancer; test: IC50 assay (concentration-cell number study); type: cell-based; conditions: 120 h exposure
Protocol: as §4

[14] = system: Sarcoma 180; test: IC50 assay (concentration-cell number study); type: cell-based; conditions: 120 h exposure
Protocol: as §4

[15] = system: Panc 01 Pancreatic Cancer; test: IC50 assay (concentration-cell number study); type: cell-based; conditions: 120 h exposure
Protocol: as §4

[16] = system: CCRF-CEM Leukemia; test: IC50 assay (concentration-cell number study); type: cell-based; conditions: 120 h exposure
Protocol: as §4

[17] = system: HEP-G2 Liver Cancer; test: IC50 assay (concentration-cell number study); type: cell-based; conditions: 120 h exposure
Protocol: as §4

[18] = system: L1210 Leukemia; test: IC50 assay (concentration-cell number study); type: cell-based; conditions: 120 h exposure
Protocol: as §4

[19] = system: Colon 38 Colon Cancer; test: IC50 assay (concentration-cell number study); type: cell-based; conditions: 120 h exposure
Protocol: as §2, §3

[20] = system: 13 different cancer cell lines; test: IC50 assays, average or range over all cell lines; type: cell-based; conditions: average of 13 cell lines
Protocol: as §2, §3

[21] = Homo sapiens, HCT-116, 120 h, read-out: IC50

Compound | IC50 [1, 21] [µg/mL] | IC50 [1] [µg/mL] | IC50 [8] [µg/mL] | IC50 [9] [µg/mL] | IC50 [10] [µg/mL] | IC50 [11] [µg/mL] | IC50 [12] [µg/mL] | IC50 [13] [µg/mL] | IC50 [14] [µg/mL] | IC50 [15] [µg/mL] | IC50 [16] [µg/mL] | IC50 [17] [µg/mL] | IC50 [18] [µg/mL] | IC50 [19] [µg/mL] | IC50 AVG. [20] [µg/mL] | other results
O=c1[nH]cc(F)c(=O)[nH]1 [5-Fluorouracil, reference compound] | 0.15 (≈ 1.15 µM) | – | – | – | – | – | – | – | – | – | – | – | – | – | – | –
O=C1C(O)=C(O)C(=O)C(O)=C1O [Composition 4, tetrahydroxy-1,4-quinone] | – | 17.0 (≈ 98.8 µM) | 53 (≈ 308 µM) | 5.9 (≈ 34.3 µM) | 5.8 (≈ 33.7 µM) | 54 (≈ 314 µM) | 28 (≈ 163 µM) | 8.0 (≈ 46.5 µM) | 51 (≈ 296 µM) | 24 (≈ 139 µM) | 7.0 (≈ 40.7 µM) | 8.5 (≈ 49.4 µM) | 49 (≈ 285 µM) | 19 (≈ 110 µM) | 25 (≈ 145 µM) | TOTAL ORAC SCORE [2]: 1,508 micromoles TE/g; ORAC hydro SCORE [3]: 1,507 micromoles TE/g; ORAC lipo SCORE [4]: 1 micromoles TE/g; HORAC SCORE [5]: 129 micromoles CAE/g; NORAC SCORE [6]: 438 micromoles TE/g; SOD SCORE [7]: 145,000 unitsSODeq/g; IC50 ([1]; listed as 4): 17 µg/mL (≈ 98.8 µM)
N.N.[Cl][Pt][Cl] [cis-Platinum, reference compound] | – | 0.10 | – | – | – | – | – | – | – | – | – | – | – | – | – | –
O=C1O[C@H]([C@@H](O)CO)C(O)=C1O [Vitamin C, reference compound] | > 100 | – | – | – | – | – | – | – | – | – | – | – | – | – | – | –
CC[C@]1(O)C[C@H]2CN(CCc3c([nH]c4ccccc34)[C@@](C(=O)OC)(c3cc4c(cc3OC)N(C=O)[C@H]3[C@@](O)(C(=O)OC)[C@H](OC(C)=O)[C@]5(CC)C=CCN6CC[C@]43[C@@H]65)C2)C1 [Vincristine, reference compound] | 0.005 (≈ 0.00606 µM) | – | – | – | – | – | – | – | – | – | – | – | – | – | – | –
Acetogenin [Composition 3] | – | 0.002 | 0.0014 | 0.0013 | 0.0013 | 0.005 | 0.0018 | 0.0012 | 0.0012 | 0.00041 | 0.0052 | 0.0022 | 0.013 | 0.00019 | 0.0028 | IC50 ([1]; listed as 3): 0.002 µg/mL
